From patent US6638938B1, “Method for preventing tissue injury from hypoxia” (Cell Therapeutics, Inc., priority 1993, dated 2003)

What was measured:
TNFα [1] = assay: TNFα sandwich ELISA of BAL supernatants and plasma; type: in vivo, Balb/C mice
Description: (§1) This example illustrates a study of Lisofylline in a murine hemorrhage and resuscitation model. Male Balb/C mice, 8-12 weeks of age, were obtained from Harlan-Sprague Dawley (Indianapolis, Ind.). The animals were kept on a 12 hour light/dark cycle with free access to food and water. With this model, 30% of the calculated blood volume (approximately 0.55 ml for a 20 gram mouse) was withdrawn from a methoxyflurane anesthetized mouse by cardiac puncture over a 60-second period. The blood was collected into a heparinized syringe (5 units heparin), kept at 37° C. for one hour, then reinfused into the mouse through a retroorbital plexus injection. Using this method, one is able to resuscitate all hemorrhaged mice without complication. The total period of methoxyflurane anesthesia is less than 2 minutes in all cases. The mortality rate with this hemorrhage protocol is approximately 12%, with all deaths occurring over the 24 hours post hemorrhage, and most deaths occurring within the one hour post hemorrhage.
(§2) Mice were treated with 100 mg/kg Lisofylline in 0.2 ml PBS and given initially i.v., by retroorbital injection, then i.p. every 8 hours for a total of 9 doses. In hemorrhaged mice, the Lisofylline in PBS was added to the shed blood, and then given retroorbitally with the blood during the resuscitation phase. In hemorrhaged Balb/C mice (n=3), sacrificed by exsanguination 5 minutes after receiving Lisofylline with the blood used for resuscitation, serum levels of Lisofylline were 44±6 μg/ml.
(§3) Three days following hemorrhage and resuscitation or the initiation of treatment with Lisofylline therapy in normal treated animals, mice were anesthetized with methoxyflurane and sacrificed by exsanguination through cardiac puncture into a heparinized (5 U) syringe. Normal mice, not subjected to hemorrhage/resuscitation or to treatment with Lisofylline, were included. Bronchoalveolar lavage (BAL) specimens, using 1.0 ml PBS injected and aspirated three times into the trachea and lungs, were obtained. Cells contained in the BAL were collected by centrifugation of BAL specimens. […] As determined by cytology, there was less than 3% contamination of alveolar macrophages with lymphocytes, neutrophils, or other mononuclear cell populations when BAL specimens are collected in normal Balb/C mice, but approximately 11±2% of isolated cells are neutrophils in mice subjected 3 days previously to 30% blood volume hemorrhage with resuscitation one hour later. […]
(§4) TNFα and IFN-γconcentrations in BAL supernatants and plasma were determined with sandwich ELISA assays using the monoclonal antibody pairs (i.e., unbiotinylated or biotinylated) MP6-XT3 for TNFα and XMG1.2 for IFN-γ(Pharmingen San Diego, Calif.). […]

human neutrophils = assay: neutrophil superoxide anion production (cytochrome c reduction); type: cell-based
Text: Human recombinant interleukin-1α (IL-1) was obtained from Hoffmann-LaRoche, Inc. (Nutley, N.J.), frozen inaliquots and thawed daily for use. Ketamine hydrochloride was obtained from Parke-Davis (Morris Plains, N.J.), xylazine from Haver (New York, N.J.), ^125I labeled bovine serum albumin (BSA) from ICN Radiochemicals (Irvine, Calif.), and heparin sodium from Elkins-Sinn, Inc. (Cherry Hill, N.J.). All other reagents were purchased from Sigma Chemical Co. (St. Louis, Mo.). Neutrophils were purified from human blood by well described methods. Venous blood was anticoagulated with heparin and the cellular elements were separated from platelet-rich plasma by centrifugation. Cell pellets were resuspended in platelet-poor plasma and diluted 1:4 with 6% dextran (Pharmacia Fine Chemicals, Piscataway, N.J.) in saline. Red cells were separated from leukocytes by sedimentation. Leukocyte-rich supernatants were then aspirated, underlain with Ficoll-Hypaque (Pharmacia Fine Chemicals), and centrifuged at 275×g to separate neutrophils and monocytes. Sedimented neutrophils were resuspended in Hank's balanced salt solution (HBSS). These preparations contained 94 to 96% neutrophils and 4 to 6% monocytes. All values were compared by analysis of variance and corrected by post hoc Student t tests for differences between groups. A p value of <0.05 was considered significant.
Release of superoxide anion by neutrophils was determined spectrophotometrically by measuring superoxide dismutase (SOD) inhibitable reduction of horse heart ferricytochrome C (Sigma Chemical Co., St. Louis, Mo.). Briefly, neutrophils (2×10^6) were placed in tubes containing HBSS (sufficient quantity to 2.0 ml), pooled human serum (1%), and SOD (2.98 mg) with and without Lisofylline. These mixtures were divided in half, and one part was incubated at 37° C. and one part at 4° C. After incubation, reaction mixtures were kept at 4° C. and centrifuged at 800×g for 15 min. Absorbance for paired supernatants was measured at 550 nm using a spectrophotometer (Model 35; Beckman Instruments, Inc., Fullerton, Calif.), averaged, and expressed at nanomoles of SOD-inhibitable cytochrome C reduced/20 min. In some experiments, neutrophils were incubated with PMA.
Neutrophil chemotactic activity was determined by Boyden chamber assay and quantitated as the number of migrating PMN/5HPF using zymosan-activated serum (ZAS) as the chemoattractant (Repine et al., J. Reticuloendo. Soc. 24:217, 1978). Neutrophil adherence was assessed by quantitating the percentage of neutrophils adhering to nylon fibers following addition of phorbol myristate acetate (PMA 10-^6M, Sigma) (Rasp et al., J. Reticuloendo. Soc. 25:101, 1979). Neutrophil superoxide production was determined by quantitating superoxide dismutase inhibitable reduction of cytochrome c in response to PMA (10^−6 M) (Berger et al., J. Infectious Dis. 149:413, 1984).

IFN-γ = IFN-γ sandwich ELISA of BAL supernatants and plasma; type: in vivo, Balb/C mice
Description: as §1, §2, §3, §4

TNFα [2] = assay: immunohistochemical staining of lung samples for TNFα; type: in vivo; settings: hemorrhaged/resuscitated mice or normal mice treated
Text: In sections from mice subjected to hemorrhage and resuscitation 3 days previously, staining for TNFα was present, particularly in the perivascular areas.

[3] = hemorrhaged/resuscitated mice treated for 72 hours
[4] = normal, unhemorrhaged mice treated

SMILES: C[C@@H](O)CCCCn1c(=O)c2c(ncn2C)n(C)c1=O [Lisofylline, 1-R-(5-hydroxyhexyl)-3,7-dimethylxanthine]
- plasma TNFα concentrations (TNFα [1]; hemorrhage/resuscitated/Lisofylline treated mice): 218 ± 49 pg/mL
- TNFα concentrations in BAL supernatants (TNFα [1]; hemorrhaged/resuscitated mice treated): 73 ± 45 pg/mL
- plasma TNFα concentrations (TNFα [1]; normal/Lisofylline treated mice): 116 ± 36 pg/mL
- TNFα in BAL supernatants (TNFα [1]; unhemorrhaged mice treated, p<0.01 versus normal untreated): 676±80 pg/mil
- Neutrophil Superoxide Production in vitro (human neutrophils; Neutrophils + PMA + Lisofylline 0.7 μM): 9.2 ± 7.8 (4) μM cyto c reduced/30 min
- Neutrophil Superoxide Production in vitro (human neutrophils; Neutrophils + PMA + Lisofylline 7 μM): 82.3 ± 5.2 (4) μM cyto c reduced/30 min
- Neutrophil Superoxide Production in vitro (human neutrophils; Neutrophils + PMA + Lisofylline 70 μM): 80.6 ± 5.2 (4) μM cyto c reduced/30 min
- Neutrophil Superoxide Production in vitro (human neutrophils; Neutrophils + PMA + Lisofylline 700 μM): 92.0 ± 1.1 (4) μM cyto c reduced/30 min
- neutrophil superoxide anion generation (human neutrophils; PMA 10^-6 M, in vitro, whether reduced): not
- IFN-γ levels in BAL supernatants (IFN-γ; [3]): 2 ± 2 pg/mL
- IFN-γ levels in plasma (IFN-γ; [3]): 173 ± 120 pg/mL
- IFN-γ content of BAL supernatants (IFN-γ; [4]): 16 ± 16 pg/mL
- IFN-γ in plasma (IFN-γ; [4]): 66 ± 48 pg/mL
- immunohistochemical staining of lung for TNFα (TNFα [2]): no signal
